≈ marks a conversion by molar mass, not a printed value.
Experiments:
E. coli K12 PBP3 = biological target: T1, E. coli K12 PBP3 (Escherichia coli, UniProt P0AD68); test: biochemical; format: binding
T1 construct: made in house
Method in brief: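 A. baumannii PBP2 (2.5 μM) and PBP3 (0.2 μM) were run in 25 mM Tris pH 8.0 buffer with Tween 20; E. coli PBP3 (1.5 μM) and N. gonorrhoeae PBP2 ([…]) in 50 mM Hepes pH 8.0 buffer.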

P. aeruginosa PBP3 = biological target: T2, P. aeruginosa PBP3 (Pseudomonas aeruginosa, UniProt G3XD46); test: Bocillin-FL fluorescence polarization competition binding assay, P. aeruginosa PBP3; conditions: fluorescence polarization competition binding assay using Bocillin-FL
T2 construct: made in house
T2 sequence (G3XD46 whole entry): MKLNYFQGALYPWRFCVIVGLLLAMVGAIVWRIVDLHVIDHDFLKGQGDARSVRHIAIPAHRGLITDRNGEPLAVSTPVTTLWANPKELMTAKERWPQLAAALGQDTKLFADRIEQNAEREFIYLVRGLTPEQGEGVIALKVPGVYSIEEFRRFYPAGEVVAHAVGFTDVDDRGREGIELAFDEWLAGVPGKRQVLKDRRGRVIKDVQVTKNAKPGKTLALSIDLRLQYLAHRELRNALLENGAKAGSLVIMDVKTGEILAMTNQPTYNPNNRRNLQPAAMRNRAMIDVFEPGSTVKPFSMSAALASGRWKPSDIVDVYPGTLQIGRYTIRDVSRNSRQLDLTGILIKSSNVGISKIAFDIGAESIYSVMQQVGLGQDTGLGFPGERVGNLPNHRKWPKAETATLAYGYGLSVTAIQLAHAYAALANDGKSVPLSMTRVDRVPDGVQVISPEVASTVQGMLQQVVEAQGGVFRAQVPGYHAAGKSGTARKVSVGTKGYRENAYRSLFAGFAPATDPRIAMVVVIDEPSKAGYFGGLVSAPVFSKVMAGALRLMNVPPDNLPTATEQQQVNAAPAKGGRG
Method in brief: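 Inhibitor competition with Bocillin-FL for P. aeruginosa PBP3 was followed by fluorescence polarization on a Cytation3 (BioTek) reader, using g-factor 0.96, 490 nm excitation and 520 nm emission. The enzyme was at 0.75 μM and the probe at 0.1 μM in Hepes/NaCl/glycerol buffer, 80 μl per well. FP was recorded immediately after probe addition for up to 60 minutes. Potency was expressed as EC50, the concentration that reduces bound probe by 50%.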

A. baumannii ATCC 19606 = test: Broth microdilution MIC in CAMHB; format: cell-based; conditions: Acinetobacter baumannii, ATCC19606; MHB; read-out: Minimum Inhibitory Concentration, A. baumannii ATCC 19606
Method in brief: (§1)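 Hyper-permeable or efflux-deficient strains serve to probe outer-membrane penetration. Growth inhibition is scored visually after 16-20 h at 37° C in CAMHB, starting from 2-8×10^5 CFU/mL.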

E. coli ATCC 25922 = test: Broth microdilution MIC in CAMHB; format: cell-based; conditions: Escherichia coli, ATCC25922; E. coli ATCC 25922; MHB; read-out: Minimum Inhibitory Concentration, E. coli 25922
Method in brief: as §1

[1] = system: K. pneumoniae 848844 producing SHV-11 and KPC-2; test: Broth microdilution MIC in CAMHB; format: cell-based; conditions: Klebsiella pneumoniae, read-out: Minimum Inhibitory Concentration, K. pneumoniae 848844
Method in brief: as §1

[2] = system: K. pneumoniae SI-117 producing VIM-1; test: Broth microdilution MIC in CAMHB; format: cell-based; conditions: Klebsiella pneumoniae, read-out: Minimum Inhibitory Concentration, K. pneumoniae SI-117
Method in brief: as §1

[3] = system: P. aeruginosa (ΔmexAB-oprM); test: Broth microdilution MIC in CAMHB; format: cell-based; conditions: Pseudomonas aeruginosa, read-out: Minimum Inhibitory Concentration, P. aeruginosa ΔmexAB-OprM
Method in brief: as §1

P. aeruginosa ATCC 27853 = test: Broth microdilution MIC in CAMHB; format: cell-based; conditions: Pseudomonas aeruginosa, ATCC27853; MHB; read-out: Minimum Inhibitory Concentration, P. aeruginosa ATCC 27853
Method in brief: as §1

P. aeruginosa ATCC 35151 = test: Broth microdilution MIC in CAMHB; format: cell-based; conditions: Pseudomonas aeruginosa, ATCC35151; MHB; hyper-permeable strain; read-out: Minimum Inhibitory Concentration, P. aeruginosa ATCC 35151
Method in brief: as §1

T1 sequence (P0AD68 1-577): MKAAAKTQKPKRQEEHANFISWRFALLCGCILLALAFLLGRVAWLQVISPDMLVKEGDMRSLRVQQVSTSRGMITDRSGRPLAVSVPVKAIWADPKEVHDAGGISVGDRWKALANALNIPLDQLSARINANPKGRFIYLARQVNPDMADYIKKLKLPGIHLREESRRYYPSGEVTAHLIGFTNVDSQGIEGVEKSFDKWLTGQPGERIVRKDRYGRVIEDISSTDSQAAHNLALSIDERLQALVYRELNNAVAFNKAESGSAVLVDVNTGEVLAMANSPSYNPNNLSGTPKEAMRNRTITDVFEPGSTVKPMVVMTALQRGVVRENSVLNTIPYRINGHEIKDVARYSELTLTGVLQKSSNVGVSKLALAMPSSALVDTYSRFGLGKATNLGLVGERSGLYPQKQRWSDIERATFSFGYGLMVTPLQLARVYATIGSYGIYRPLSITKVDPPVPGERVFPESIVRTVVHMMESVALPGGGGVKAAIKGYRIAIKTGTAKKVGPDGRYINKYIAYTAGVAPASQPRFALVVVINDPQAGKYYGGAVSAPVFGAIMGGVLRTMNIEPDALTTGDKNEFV

SMILES | EC50 (E. coli K12 PBP3) [µM] | P. aeruginosa PBP3 Potency (P. aeruginosa PBP3) | MIC (A. baumannii ATCC 19606) [µg/mL] | MIC (E. coli ATCC 25922) [µg/mL] | MIC [1] [µg/mL] | MIC [2] [µg/mL] | MIC [3] [µg/mL] | MIC (P. aeruginosa ATCC 27853) [µg/mL] | MIC (P. aeruginosa ATCC 35151) [µg/mL]
NS(=O)(=O)Nc1ccc(F)c(C(NC(=O)N2CCN(CCF)C(=O)C2=O)C(=O)N[C@H]2Cc3cccc(C(=O)O)c3OB2O)c1 (stereo partly drawn) [Example 198, (3R)-3-(2-(2-fluoro-5-(sulfamoylamino)phenyl)-2-(4-(2-fluoroethyl)-2,3-dioxopiperazine-1-carboxamido)acetamido)-2-hydroxy-3,4-dihydro-2H-benzo[e][1,2]oxaborinine-8-carboxylic acid] | < 30 | D (D represents a potency <10 μM) | > 128 | 8 to 16 (≈ 12.5 to 25.1 µM) | > 128 | 32 to 64 (≈ 50.1 to 100 µM) | 2 to 4 (≈ 3.13 to 6.27 µM) | > 128 | 0.5 to 1 (≈ 0.783 to 1.57 µM)
CS(=O)(=O)N1CCN(C(=O)N[C@@H](C(=O)N[C@H]2Cc3ccc(F)c(C(=O)O)c3OB2O)c2cc(F)c(O)c(O)c2Cl)C1=O (single isomer, unassigned) [Example 189] | < 30 | D (D represents a potency <10 μM) | 0.5 to 1 (≈ 0.79 to 1.58 µM) | 2 to 4 (≈ 3.16 to 6.32 µM) | 2 to 4 (≈ 3.16 to 6.32 µM) | 8 to 16 (≈ 12.6 to 25.3 µM) | 8 to 16 (≈ 12.6 to 25.3 µM) | 2 to 4 (≈ 3.16 to 6.32 µM) | 0.5 to 1 (≈ 0.79 to 1.58 µM)
CCN1CCN(C(=O)NC(C(=O)N[C@H]2Cc3cccc(C(=O)O)c3OB2O)c2ccc(C(=O)O)c(Cl)c2Cl)C(=O)C1=O (stereo partly drawn) [Example 201, (3R)-3-(2-(4-carboxy-2,3-dichlorophenyl)-2-(4-ethyl-2,3-dioxopiperazine-1-carboxamido)acetamido)-2-hydroxy-3,4-dihydro-2H-benzo[e][1,2]oxaborinine-8-carboxylic acid] | < 30 | D (D represents a potency <10 μM) | > 128 | > 128 | > 128 | > 128 | 8 to 16 (≈ 12.9 to 25.8 µM) | > 128 | 0.5 to 1 (≈ 0.805 to 1.61 µM)
CCN1CCN(C(=O)NC(C(=O)N[C@H]2Cc3cccc(C(=O)O)c3OB2O)c2cc(C#N)c(O)cc2F)C(=O)C1=O (stereo partly drawn) [Example 209, (3R)-3-(2-(5-cyano-2-fluoro-4-hydroxyphenyl)-2-(4-ethyl-2,3-dioxopiperazine-1-carboxamido)acetamido)-2-hydroxy-3,4-dihydro-2H-benzo[e][1,2]oxaborinine-8-carboxylic acid] | < 30 | D (D represents a potency <10 μM) | > 128 | 32 to 64 (≈ 56.4 to 113 µM) | > 128 | > 128 | 8 to 16 (≈ 14.1 to 28.2 µM) | > 128 | < 0.25
NCCN1CCN(C(=O)N[C@H](C(=O)N[C@H]2Cc3cccc(C(=O)O)c3OB2O)c2ccc(O)c([N+](=O)[O-])c2)C(=O)C1=O (single isomer, unassigned) [Example 200] | > 500 | C (C represents a potency between 10 and 30 μM) | > 128 | > 128 | > 128 | > 128 | > 128 | > 128 | 2 to 4 (≈ 3.42 to 6.85 µM)
O=C(O)c1cccc2c1OB(O)[C@@H](NC(=O)C(NC(=O)N1CCN(C3CNC3)C(=O)C1=O)c1c(F)cc(O)cc1F)C2 (stereo partly drawn) [Example 212, (3R)-3-(2-(4-(azetidin-3-yl)-2,3-dioxopiperazine-1-carboxamido)-2-(2,6-difluoro-4-hydroxyphenyl)acetamido)-2-hydroxy-3,4-dihydro-2H-benzo[e][1,2]oxaborinine-8-carboxylic acid] | < 30 | D (D represents a potency <10 μM) | > 128 | 8 to 16 (≈ 13.6 to 27.2 µM) | 32 to 64 (≈ 54.5 to 109 µM) | 32 to 64 (≈ 54.5 to 109 µM) | 8 to 16 (≈ 13.6 to 27.2 µM) | > 128 | 0.5 to 1 (≈ 0.851 to 1.7 µM)
CCN1CCN(C(=O)NC(C(=O)N[C@H]2Cc3cccc(C(=O)O)c3OB2O)c2ccc(C(=O)O)c(O)c2)C(=O)C1=O (stereo partly drawn) [Example 196, (3R)-3-(2-(4-carboxy-3-hydroxyphenyl)-2-(4-ethyl-2,3-dioxopiperazine-1-carboxamido)acetamido)-2-hydroxy-3,4-dihydro-2H-benzo[e][1,2]oxaborinine-8-carboxylic acid] | < 30 | D (D represents a potency <10 μM) | > 128 | 32 to 64 (≈ 56.3 to 113 µM) | 32 to 64 (≈ 56.3 to 113 µM) | 32 to 64 (≈ 56.3 to 113 µM) | 2 to 4 (≈ 3.52 to 7.04 µM) | 32 to 64 (≈ 56.3 to 113 µM) | < 0.25
CCN1CCN(C(=O)NC(C(=O)N[C@H]2Cc3cccc(C(=O)O)c3OB2O)c2c(F)cc(NC(C)=O)cc2F)C(=O)C1=O (stereo partly drawn) [Example 188, (3R)-3-(2-(4-acetamido-2,6-difluorophenyl)-2-(4-ethyl-2,3-dioxopiperazine-1-carboxamido)acetamido)-2-hydroxy-3,4-dihydro-2H-benzo[e][1,2]oxaborinine-8-carboxylic acid] | < 30 | D (D represents a potency <10 μM) | > 128 | 32 to 64 (≈ 53.2 to 106 µM) | > 128 | > 128 | 32 to 64 (≈ 53.2 to 106 µM) | > 128 | 0.5 to 1 (≈ 0.831 to 1.66 µM)
NCCN1CCN(C(=O)N[C@H](C(=O)N[C@H]2Cc3cccc(C(=O)O)c3OB2O)c2ccc(O)c(Cl)c2F)C(=O)C1=O (single isomer, unassigned) [Example 187] | 30 to 500 | B (B represents a potency between 30 μM and 500 μM inclusive) | > 128 | > 128 | > 128 | > 128 | 32 to 64 (≈ 54.1 to 108 µM) | > 128 | 2 to 4 (≈ 3.38 to 6.76 µM)
CCN1CCN(C(=O)NC(C(=O)N[C@H]2Cc3cccc(C(=O)O)c3OB2O)c2ccc(O)c(Cl)c2F)C(=O)C1=O (stereo partly drawn) [Example 185, (3R)-3-(2-(3-chloro-2-fluoro-4-hydroxyphenyl)-2-(4-ethyl-2,3-dioxopiperazine-1-carboxamido)acetamido)-2-hydroxy-3,4-dihydro-2H-benzo[e][1,2]oxaborinine-8-carboxylic acid] | < 30 | D (D represents a potency <10 μM) | > 128 | 32 to 64 (≈ 55.5 to 111 µM) | > 128 | 32 to 64 (≈ 55.5 to 111 µM) | 2 to 4 (≈ 3.47 to 6.94 µM) | > 128 | 0.5 to 1 (≈ 0.867 to 1.73 µM)
CCN1CCN(C(=O)N[C@@H](C(=O)N[C@H]2Cc3cccc(C(=O)O)c3OB2O)c2ccc(C(=O)O)c(F)c2Cl)C(=O)C1=O (single isomer, unassigned) [Example 203] | < 30 | D (D represents a potency <10 μM) | > 128 | > 128 | > 128 | > 128 | 8 to 16 (≈ 13.2 to 26.5 µM) | > 128 | 0.5 to 1 (≈ 0.827 to 1.65 µM)
CCN1CCN(C(=O)NC(C(=O)N[C@H]2Cc3cccc(C(=O)O)c3OB2O)c2cc(C#N)c(OC)cc2F)C(=O)C1=O (stereo partly drawn) [Example 192, (3R)-3-(2-(5-cyano-2-fluoro-4-methoxyphenyl)-2-(4-ethyl-2,3-dioxopiperazine-1-carboxamido)acetamido)-2-hydroxy-3,4-dihydro-2H-benzo[e][1,2]oxaborinine-8-carboxylic acid] | 30 to 500 | D (D represents a potency <10 μM) | > 128 | > 128 | > 128 | > 128 | 32 to 64 (≈ 55 to 110 µM) | > 128 | 2 to 4 (≈ 3.44 to 6.88 µM)
NCCN1CCN(C(=O)N[C@@H](C(=O)N[C@H]2Cc3cccc(C(=O)O)c3OB2O)c2ccc(O)c([N+](=O)[O-])c2)C(=O)C1=O (single isomer, unassigned) [Example 199] | < 30 | D (D represents a potency <10 μM) | > 128 | 32 to 64 (≈ 54.8 to 110 µM) | > 128 | > 128 | 8 to 16 (≈ 13.7 to 27.4 µM) | > 128 | 0.5 to 1 (≈ 0.856 to 1.71 µM)
CCN1CCN(C(=O)N[C@H](C(=O)N[C@H]2Cc3cccc(C(=O)O)c3OB2O)c2ccc(C(=O)O)c(F)c2Cl)C(=O)C1=O (single isomer, unassigned) [Example 202] | 30 to 500 | C (C represents a potency between 10 and 30 μM) | > 128 | > 128 | > 128 | > 128 | > 128 | > 128 | 2 to 4 (≈ 3.31 to 6.61 µM)
